Patent US20230105082A1, “ANTIMICROBIAL COMPOSITIONS FOR PET FOOD PRODUCTS” (priority 2020, published 2023)

System: mixture in equal parts of Salmonella ser. Newport, Salmonella ser. Senftenberg, and Salmonella ser. Typhimurium
Assay: Salmonella inhibition in inoculated poultry fat (Examples 2, 4 and 5)
Format: cell-based, Salmonella enterica subsp. enterica
Conditions: 1000 ppm in fat; 1 month after inoculation
From the text: Bacterial strains and culture medium Six serovars of Salmonella enterica subsp. enterica were used in these studies: Salmonella ser. Infantis (CIP103549), Salmonella ser. Mbandaka (CIP105859), and Salmonella ser. Senftenberg (isolate from pork/poultry from ANSES collection) for Example 1, Example 3 and Example 6 or Salmonella ser. Newport, Salmonella ser. Senftenberg, and Salmonella ser. Typhimurium (all isolated from pet food) for Example 2, Example 4, and Example 5. All strains were kept in collection at -80° C. in glycerol broth. Bacterial strains were cultured in Brain Heart Infusion agar and subcultured in Brain Heart Infusion broth at 37° C. for 20±2 h (BHI, VWR, USA). Salmonella count in poultry fat was carried out using Xylose Lysine Deoxycholate agar (XLD, VWR, USA) for Example 1, Example 3, and Example 6 or Violet Red Bile Glucose agar (VRBG, BioRad, USA) for Example 2, Example 4 and Example 5. Salmonella detection was done following modified EN ISO 6579-1 in 125 g of poultry fat.
Inoculum preparation Two types of matrix inoculum were used. […]
Antimicrobial efficacy of Compositions 5, 6, 7, 8, 16 was tested when added at 500 ppm in fat and compared to antimicrobial efficacy of phosphoric acid (Composition 1) when added at 1000 ppm in fat. The antimicrobial efficacy of Composition 16 at 1000 ppm in fat was also evaluated. […]

## O=P(O)(O)O [Composition 1, Phosphoric acid]
  Salmonella detection: still detected
